We go through four molecules from EP0061711A1, “10B-Carboxyamino boranes, process for their preparation and their use as medicaments in the neutron-capture therapy” (priority 1981, dated 1982).

The subject of one data set is Sarkom 180. The data set can be described thus: sarcoma 180 in NMRI mice: tumour size and survival, alone or with gamma rays or thermal neutrons. It counts as in vivo, NMRI-Mäuse. The conditions noted are these: for überlebende Tiere: 40 Tage after start of treatment. The text has this:
Die geringe Toxizität der erfindungsgemäß verwendeten Substanz ermöglicht eine so hohe Dosierung, daß sowohl eine begrenzte Eigenwirkung zum Tragen kommt als auch insbesondere eine ausreichende Erhöhung der ^10Bor-Konzentration in den erkrankten Zellen erreicht wird. So wurde festgestellt, daß die Toxizität bei der Maus i.p. eine DL50 um 2000 m^g/k^g ergibt. Pharmakologisch wurde festgestellt, daß N-Trimethyl-^10B-carboxyaminoboran den Einbau von 125 Jod -^desoxyuridin bei der gesunden Maus senkt. Weiterhin senkt es den Einbau von ^125Jod -desoxyuridin in das Sarkom 180 der Maus.
Besonders eindrucksvoll ist die Veränderung der Überlebenszeiten der Sarkom 180 tragenden NMRI-Mäuse. Während 40 Tage nach Beginn der Behandlung von den unbehandelten und den nur mit Neutronen behandelten Tieren ca. 90% am Tumor gestorben sind, überleben zu diesem Zeitpunkt ca. 40% der nur mit N-Trimethyl-^10B-carboxy-aminoboran und ca. 75 % der mit dieser Substanz und Neutronen behandelten Tiere.
Ein Vergleich mit Natriumpentaborat und Neutronen zeigt, daß nur 20 bis 30 % der Sarkom-Tiere überleben.
(§1) Diese pharmakologischen Befunde wurden zunächst noch mit einem N-Trimethyl- B-carboxy-aminoboran erhalten, welches nur 20 % ^10Bor enthielt. Durch Steigerung des ^10Bor-Gehalts auf 80 bis 90% erhöht sich die Antitumorwirkung durch Neutroneneinfang um das. 4 bis 5-fache: • C-57 BL/6j Mäuse mit Adenocarcinom EO 771 werden in drei Gruppen aufgeteilt: • Gruppe 1 dient als Kontrolle Gruppe 2 wird 6 Minuten mit thermischen Neutronen bestrahlt Gruppe 3 erhält 10 mg N-Trimethyl-^10B-carboxyaminoboran intraperitonal (i.p.) und wird nach 6 Stunden - dem Zeitpunkt der optimalen Anreicherung im Tumorgewebe - für 6 Minuten mit thermischen Neutronen bestrahlt.

The nature of data set [1]: acute toxicity (DL50) in the mouse, i.p. Particulars: in vivo, ip, Maus.
Data set [2] in a line: therapeutic results in combination with neutrons (model not stated). Particulars: in Verbindung mit Neutronen, compared with N-Trimethyl-10B-carboxyaminoboran.
Data set [3] is described as follows: toxicity compared with the compound of the invention (species not stated).
For the next data set, the system named is Adenocarcinom EO 771. Put plainly: adenocarcinoma EO 771 in C-57 BL/6j mice, neutron capture therapy. Type of data set: in vivo, C-57 BL/6j Mäuse. Particulars: 10 mg i.p., after 6 Stunden 6 Minuten thermische Neutronen. On the procedure:
as §1

Another data set in a line: water solubility. Type of data set: physicochemical. The conditions noted are these: for intravenous application.
A short description of data set [4]: boron accumulation in tumour tissue versus blood. It counts as in vivo.
A further data set relates to Sarkom 180 der Maus. Put plainly: incorporation of 125I-deoxyuridine into sarcoma 180 of the mouse. It counts as in vivo. The conditions noted are these: in Sarkom 180 der Maus.
In another data set the test system is gesunden Maus. Put plainly: incorporation of 125I-deoxyuridine in the healthy mouse. Type of data set: in vivo. Particulars: gesunde Maus.

For `C[N+](C)(C)[BH2-]C(=O)O` [N-Trimethyl- B-carboxy-aminoboran, reference compound], in the data set on Sarkom 180 (surviving animals), the “lokale oder systemische Schäden” value was “An keinem der überlebenden Tiere wurden lokale oder systemische Schäden beobachtet”.

As usually defined, the LD50 is the dose at which mortality reaches 50%. Read a low LD50 as a more toxic substance. With `[NH3+][10BH2-]C(=O)O` [Ammoniak- ^10B-carboxyboran, Ammoniak- ^10 B-carboxyboran], the LD50 in data set [1] is about 2500 mg/kg. In data set [2], the “therapeutische Ergebnisse” value is “Noch bessere therapeutische Ergebnisse”.

On to Natriummonomercaptoundecahydrodecaborat, for which, in [3], the “toxicity relative to the compound of the invention” value was about 5 mal.

As for `C[N+](C)(C)[10BH2-]C(=O)O` [N-Trimethyl-^10B-carboxyaminoboran], the Tumorgröße entry was “nimmt der Tumor in Gruppe 3 nach der kombinierten Behandlung an Größe ab” with Adenocarcinom EO 771 and “Verkleinerung des Tumors” in the data set with Sarkom 180 (Sarkom 180 der Maus, substance alone). In addition, the “time until tumour is reduced to a minimum” value with Adenocarcinom EO 771 is about 7 Tagen. In “water solubility”, the Wasserlöslichkeit entry was “ausreichend wasserlöslich”. The Kp in data set [4] (tumour to blood, 6 bis 12 Stunden after intravenous injection, read-out: Bor-Konzentration im Tumor relative to Blut) lay in the range of 2 to 3. In addition, in [4] (tumour, ip, after i.p. application, read-out: Zeitpunkt der optimalen Anreicherung im Tumorgewebe), the Tmax was determined as 6 h. In addition, the “Einbau von 125Jod -desoxyuridin” value in the data set on Sarkom 180 der Maus and in the data set on gesunden Maus was “senkt” each time. Further, the LD50 in data set [1] is about 2000 mg/kg. The “überlebende Tiere” value in the data set with Sarkom 180 (substance alone) is given as “ca. 40%”; with Sarkom 180 (substance and Neutronen) it was “ca. 75%”. Also, the Tumorwachstum entry in the data set on Sarkom 180 (combination with γ-Strahlen) is “positiv beeinflußt”. Besides, in the data set on Sarkom 180 (simultaneous treatment with thermischen Neutronen), the Tumorvolumen result is listed as “wesentlich stärker verkleinert als durch die Einzelkomponenten”.
